Laboratory results: ChEMBL document CHEMBL1817550, “Synthesis and biological evaluation of some novel cyclic-imides as hypoglycaemic, anti-hyperlipidemic agents” (Eur J Med Chem, 2011)
Activity calls are given as the source filed them. No cut-off for these calls is given here.

Experiments:
Rattus norvegicus [1] = assay: Hypoglycemic activity in streptozotocin-induced diabetic rat model assessed as decrease in serum glucose level at 10 mg/kg/day, po dosed via gavage for 14 days administered 3 days after streptozotocin challenge by UV-spectrophotometry; format: functional
Rattus norvegicus [2] = assay: Antihyperlipidemic activity in streptozotocin-induced diabetic rat model assessed as serum triglyceride level at 10 mg/kg/day, po dosed via gavage for 14 days administered 3 days after streptozotocin challenge by UV-spectrophotometry; format: functional
Rattus norvegicus [3] = assay: Antihyperlipidemic activity in high-cholesterol diet-induced hypercholesterolemia Swiss albino rat model assessed as reduction in serum cholesterol level at 10 mg/kg/day, po administered via gavage simultaneously with diet cocktail for 14 days by UV-spectrophotometry relative to untreated control; format: functional; conditions: 336 h
Rattus norvegicus [4] = assay: Antihyperlipidemic activity in streptozotocin-induced diabetic rat model assessed as serum cholesterol level at 10 mg/kg/day, po dosed via gavage for 14 days administered 3 days after streptozotocin challenge by UV-spectrophotometry; format: functional
Rattus norvegicus [5] = assay: Toxicity in healthy rat assessed as incidence of less responsive state at 2000 to 7000 mg/kg, po measured after 2 to 6 hrs; format: organism-based; set-up: route oral; conditions: in vivo
Rattus norvegicus [6] = assay: Toxicity in healthy rat assessed as incidence of mortality at 2000 to 7000 mg/kg, po measured after 24 hrs; format: organism-based; set-up: dose 2000-7000 mg/kg, route oral; conditions: in vivo
[7] = Toxicity in intra-gastrically dosed healthy rat administered as single dose; format: organism-based; conditions: in vivo, po
Rattus norvegicus [8] = assay: Toxicity in healthy rat at 2000 to 7000 mg/kg, po measured after 24 hrs; format: organism-based; set-up: dose 2000-7000 mg/kg, route oral; conditions: in vivo
Rattus norvegicus [9] = assay: Antihyperlipidemic activity in high-cholesterol diet-induced hypercholesterolemia Swiss albino rat model assessed as reduction in serum cholesterol level at 160 mg/kg/day, po administered via gavage simultaneously with diet cocktail for 14 days by UV-spectrophotometry relative to untreated control; format: functional, organism-based

| SMILES | inhibition in vivo at 10 mg/kg/day (Rattus norvegicus [1]) [%] | Activity (Rattus norvegicus [2]) [mg/dL] | inhibition in vivo at 10 mg/kg/day (Rattus norvegicus [3]) [%] | Activity (Rattus norvegicus [4]) [mg/dL] | Activity (Rattus norvegicus [5]) | Activity (Rattus norvegicus [6]) | LD50 [7] [mg/kg] | Activity (Rattus norvegicus [8]) | Activity (Rattus norvegicus [9]) |
| --- | --- | --- | --- | --- | --- | --- | --- | --- | --- |
| O=C1[C@@H]2[C@H](C(=O)N1CCc1ccccn1)C1(Cl)C(Cl)=C(Cl)C2(Cl)C1(Cl)Cl | 7 | 71 | 53 | 89.75 |  |  |  |  |  |
| O=C1c2c(Br)c(Br)c(Br)c(Br)c2C(=O)N1CCN1CCOCC1 | 20 | 80 | 7 | 161.3 |  |  |  |  |  |
| O=C1[C@@H]2[C@H](C(=O)N1CCN1CCOCC1)C1(Cl)C(Cl)=C(Cl)C2(Cl)C1(Cl)Cl |  | 91.33 | 7 | 152.3 |  |  |  |  |  |
| O=C1c2cc(Cl)c(Cl)cc2C(=O)N1CCN1CCOCC1 | 30 | 97.66 | 42 | 88.66 |  |  |  |  |  |
| O=C1c2c(Br)c(Br)c(Br)c(Br)c2C(=O)N1Cc1ccccn1 | 35 | 82.66 | 54 | 92.33 | Toxic | Non-toxic | 5010 | Non-toxic | Active |
| O=C1c2cc(Cl)c(Cl)cc2C(=O)N1CCc1ccccn1 | 55 | 71.6 | 56 | 92.33 | Toxic | Non-toxic | 5260 | Non-toxic | Active |
| O=C1c2c(Br)c(Br)c(Br)c(Br)c2C(=O)N1c1ccncc1 |  | 120 | 13 | 171 |  |  |  |  |  |
| O=C1[C@@H]2[C@H](C(=O)N1c1ccccn1)C1(Cl)C(Cl)=C(Cl)C2(Cl)C1(Cl)Cl | 25 | 94.33 | 33 | 129.6 |  |  |  |  |  |
| O=C1c2c(Cl)c(Cl)c(Cl)c(Cl)c2C(=O)N1CCN1CCOCC1 | 10 | 100.3 | 46 | 105.7 |  |  |  |  |  |
| O=C1c2c(Br)c(Br)c(Br)c(Br)c2C(=O)N1CCc1ccccn1 | 18 | 91.33 | 20 | 164.6 |  |  |  |  |  |
| O=C1c2c(Cl)c(Cl)c(Cl)c(Cl)c2C(=O)N1c1ncccn1 | 5 | 123 | 3 | 117 |  |  |  |  |  |
| O=C1c2cc(Cl)c(Cl)cc2C(=O)N1Cc1ccccn1 |  | 93 | 11 | 155.3 |  |  |  |  |  |
| O=C1c2c(Br)c(Br)c(Br)c(Br)c2C(=O)N1c1ccccn1 |  | 100.3 | 21 | 150.3 |  |  |  |  |  |
| O=C1c2cc(Cl)c(Cl)cc2C(=O)N1c1ccccn1 | 3 | 90.5 | 17 | 126.2 |  |  |  |  |  |
| O=C1c2c(Cl)c(Cl)c(Cl)c(Cl)c2C(=O)N1c1ccccn1 |  | 120 | 9 | 140.3 |  |  |  |  |  |
| O=C1c2c(Cl)c(Cl)c(Cl)c(Cl)c2C(=O)N1CCc1ccccn1 |  | 80 | 48 | 107.2 |  |  |  |  |  |
| O=C1c2c(Cl)c(Cl)c(Cl)c(Cl)c2C(=O)N1Cc1ccccn1 | 23 | 82.66 | 47 | 105 |  |  |  |  |  |
| O=C1[C@@H]2[C@H](C(=O)N1Cc1ccccn1)C1(Cl)C(Cl)=C(Cl)C2(Cl)C1(Cl)Cl |  | 123 | 4 | 149.3 |  |  |  |  |  |
| O=C1c2c(Cl)c(Cl)c(Cl)c(Cl)c2C(=O)N1c1ccncc1 | 3 | 110.6 | 44 | 129.5 |  |  |  |  |  |
| O=C1[C@@H]2[C@H](C(=O)N1c1ncccn1)C1(Cl)C(Cl)=C(Cl)C2(Cl)C1(Cl)Cl |  | 89.33 | 44 | 162.3 |  |  |  |  |  |
| O=C1c2c(Br)c(Br)c(Br)c(Br)c2C(=O)N1c1ncccn1 | 28 | 110.6 | 19 | 196 |  |  |  |  |  |
| O=C1[C@@H]2[C@H](C(=O)N1c1ccncc1)C1(Cl)C(Cl)=C(Cl)C2(Cl)C1(Cl)Cl | 27 | 77 | 41 | 169.3 |  |  |  |  |  |
| O=C1c2cc(Cl)c(Cl)cc2C(=O)N1c1ncccn1 | 32 | 70.66 | 58 | 96 | Toxic | Non-toxic | 4240 | Non-toxic | Active |
| O=C1c2cc(Cl)c(Cl)cc2C(=O)N1c1ccncc1 |  | 112 | 19 | 146 |  |  |  |  |  |
| COc1ccc(Cl)cc1C(=O)NCCc1ccc(S(=O)(=O)NC(=O)NC2CCCCC2)cc1 [GLYBURIDE] | 52 | 87.6 | 11 | 102.6 |  |  |  |  |  |
